Legend:
[1] = molecular target: T1, glycerol-3-phosphate cytochrome c reductase (G3PDH+CIII) (Homo sapiens, UniProt P00156); assay: Glycerol-3-phosphate cytochrome c reductase (GCCR) activity, freeze-thawed HEK cells; assay type: biochemical
T1 construct: the pellets were permeabilized by two freeze-thaw cycles before enzyme assays; endogenous in cells; host or cells: HEK293, freeze-thawed cell pellets
Experimental: (§1) The cells were grown in T75 flasks using 10 ml Dulbecco’s modified Eagle's minimal essential medium (DMEM) either containing 1 or 4.5 g/l glucose, 4 mM glutamine (glutamax; Gibco Thermo Fisher Scientific, MA), 2 mM pyruvate and 200 μM uridine (permissive medium, thereafter referred as GlucoMax) or lacking glucose, pyruvate and uridine but containing 4 mM glutamine (nonpermissive medium, thereafter referred as MitoMax; S1 Table). All media were supplemented with 10% fetal calf serum and 100 U/mL each penicillin and streptomycin. HEK293 human embryonic kidney cells were cultured in DMEM containing 4.5 g/L glucose, 4 mM glutamine, 10% fetal calf serum, 200 μM uridine, 2 mM pyruvate, and 100 U/mL each penicillin and streptomycin [9]. Cell pellets (1,500 g for 5 min) were kept frozen (-80°C), and for biochemical studies, the pellets were permeabilized by two freeze-thaw cycles before enzyme assays.
(§2) RC enzyme activities were spectrophotometrically measured using a pseudo-double-wavelength spectrophotometer (Cary 60, Agilent). Malonate-sensitive succinate quinone dichlorophenolindophenol (DCPIP) reductase (SQDR), as an indicator of the activity of the isolated SDH enzyme (isolated CII), and glycerol-3-phosphate quinone DCPIP reductase (GQDR), as a measure of the activity of the isolated glycerol-3-phosphate dehydrogenase (G3PDH), were assayed as previously described. To study the effect of SDHIs on the RC, we had to take into consideration the fact that these inhibitors act through binding to quinone-binding sites in the RC. Accordingly, we observed that the extent of the inhibitory effects of these substances varies with the addition of exogenous quinones (Fig 1). […] With this aim, we measured the malonate-sensitive succinate cytochrome c reductase (SDH+CIII), glycerol-3-phosphate cytochrome c reductase (G3PDH+CIII) and antimycin-sensitive quinol cytochrome c reductase (CIII) as previously described.
(§3) The effects of eight different SDHIs (up to 500 μM; S2 Fig) were determined on four different biological materials. Because IC50 are known to be affected by the actual absolute activity of the tested enzyme, these IC50 were quantified using similar levels of SDH enzyme activity during the assay. IC50 values were determined using the AAT Bioquest IC50 calculator tool (https://www.aatbio.com/tools/ic50-calculator).

[2] = molecular target: T2, quinol cytochrome c reductase (CIII) (Homo sapiens, UniProt P00156); assay: Antimycin-sensitive quinol cytochrome c reductase (QCCR) activity, freeze-thawed HEK cells; assay type: biochemical
T2 construct: the pellets were permeabilized by two freeze-thaw cycles before enzyme assays; endogenous in cells; host or cells: HEK293, freeze-thawed cell pellets
Experimental: as §1, §2, §3

[3] = molecular target: succinate cytochrome c reductase (SDH+CIII) (Homo sapiens, UniProt O14521+P21912+Q99643); assay: Malonate-sensitive succinate cytochrome c reductase (SCCR) activity, freeze-thawed HEK cells; assay type: biochemical; parameters: the pellets were permeabilized by two freeze-thaw cycles before enzyme assays; endogenous in cells; host or cells: HEK293, freeze-thawed cell pellets; conditions: IC50 SCCR, no exogenous quinone, n ≥ 3
Sequence of succinate cytochrome c reductase (SDH+CIII) (P21912 29-280): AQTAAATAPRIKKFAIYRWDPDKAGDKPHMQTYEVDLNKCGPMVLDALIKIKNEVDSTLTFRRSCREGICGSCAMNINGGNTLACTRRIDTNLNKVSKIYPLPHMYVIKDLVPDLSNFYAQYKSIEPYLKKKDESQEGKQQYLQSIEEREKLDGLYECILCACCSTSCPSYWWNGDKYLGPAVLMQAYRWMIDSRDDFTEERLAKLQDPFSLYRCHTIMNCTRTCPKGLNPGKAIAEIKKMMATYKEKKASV
Sequence of succinate cytochrome c reductase (SDH+CIII) (Q99643 30-169): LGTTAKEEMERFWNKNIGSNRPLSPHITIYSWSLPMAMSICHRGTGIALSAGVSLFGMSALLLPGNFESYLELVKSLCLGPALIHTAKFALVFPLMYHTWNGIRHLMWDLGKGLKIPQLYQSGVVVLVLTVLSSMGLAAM
Sequence of succinate cytochrome c reductase (SDH+CIII) (O14521 57-159): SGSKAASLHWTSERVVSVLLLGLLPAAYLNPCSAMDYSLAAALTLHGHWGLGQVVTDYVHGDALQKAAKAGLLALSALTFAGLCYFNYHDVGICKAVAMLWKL
Sequence of succinate cytochrome c reductase (SDH+CIII) (P31040 43-664 partner): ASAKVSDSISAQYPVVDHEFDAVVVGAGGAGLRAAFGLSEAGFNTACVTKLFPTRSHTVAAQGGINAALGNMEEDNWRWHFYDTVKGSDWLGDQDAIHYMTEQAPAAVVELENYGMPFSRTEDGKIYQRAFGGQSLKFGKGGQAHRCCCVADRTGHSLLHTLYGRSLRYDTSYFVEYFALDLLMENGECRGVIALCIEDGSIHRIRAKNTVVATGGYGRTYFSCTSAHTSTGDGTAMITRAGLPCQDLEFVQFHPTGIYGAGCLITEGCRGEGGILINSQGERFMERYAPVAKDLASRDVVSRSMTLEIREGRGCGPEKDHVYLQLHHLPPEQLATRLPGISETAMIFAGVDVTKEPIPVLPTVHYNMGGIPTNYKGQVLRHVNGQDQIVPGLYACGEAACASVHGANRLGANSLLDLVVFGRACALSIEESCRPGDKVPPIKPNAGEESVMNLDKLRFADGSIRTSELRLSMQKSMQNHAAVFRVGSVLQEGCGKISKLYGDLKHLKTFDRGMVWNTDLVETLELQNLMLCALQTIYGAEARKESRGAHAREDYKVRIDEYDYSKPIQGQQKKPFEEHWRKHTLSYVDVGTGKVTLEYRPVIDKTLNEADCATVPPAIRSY
Experimental: as §1, §2, §3

[4] = according to European regulations; ref European regulations; cited from earlier work

O=C(NCCc1ncc(C(F)(F)F)cc1Cl)c1ccccc1C(F)(F)F [Fluopyram, fluopyram]
IC50 [1]: > 500 µM | IC50 [2]: > 500 µM | IC50 [3]: 160 µM | ADI (Acceptable Daily Intake) [4]: 0.012 mg/kg/day

From publication PMC6837341, “Evolutionarily conserved susceptibility of the mitochondrial respiratory chain to SDHI pesticides and its consequence on the impact of SDHIs on human cultured cells” (PLoS ONE, 2019)
